Laboratory results reported in article PMC6835510, “Magnificamide, a β-Defensin-Like Peptide from the Mucus of the Sea Anemone Heteractis magnifica, Is a Strong Inhibitor of Mammalian α-Amylases” (Marine Drugs, 2019).
Bridge positions count the residues as written; N and C are the ends. Ends that are not written are not given here.

System: BgNav1
Experiment: Two-electrode voltage-clamp
Type: cell-based, Blattella germanica
Conditions: 10 µM; insect channel; Xenopus laevis oocytes; 18–22 °C
Source text: For the expression of Nav channels (mammalian rNav1.2, rNav1.4, hNav1.5, mNav1.6 and hNav1.8 channels; the insect channel BgNav1 from Blattella germanica; and the auxiliary subunits rβ1, hβ1, and TipE) and Kv channels (mammalian rKv1.1, rKv1.2, hKv1.3, rKv1.4, rKv1.5, rKv1.6, rKv2.1, hKv3.1, rKv4.2, hKv10.1, and hERG; and Drosophila Shaker’s IR) in Xenopus laevis oocytes; the linearized plasmids were transcribed using the T7 or SP6 mMESSAGE-mMACHINE transcription kit (Ambion, Carlsbad, CA, USA). The harvesting of stage V–VI oocytes from anesthetized female Xenopus laevis frog was previously described. Oocytes were injected with 50 nL of cRNA at a concentration of 1 ng/nL using a microinjector (Drummond Scientific, Broomall, PA, USA). The oocytes were incubated in a solution containing 96-mM NaCl, 2-mM KCl, 1.8-mM CaCl2, 2-mM MgCl2, and 5-mM HEPES (pH 7.4), supplemented with 50 mg/L gentamycin sulfate.
Two-electrode voltage-clamp recordings were performed at room temperature (18–22 °C) using a Geneclamp 500 amplifier (Molecular Devices, Downingtown, PA, USA) controlled by a pClamp data acquisition system (Axon Instruments, Union City, CA, USA). Whole cell currents from oocytes were recorded 1–4 days after injection. […] All data were analyzed using pClamp Clampfit 10.0 (Molecular Devices, Downingtown, PA, USA) and Origin 7.5 software (Originlab, Northampton, MA, USA).

SEGTSCYIYHGVYGICKAKCAEDMKAMAGMGVCEGDLCCYKTPW (disulfide 6-38, 16-33, 20-39) [r-magnificamide]
Channel modulating activity, BgNav1: Not active
